The record followed here is patent US20180305332A1, “Bispiperidinyl Derivatives as Liver X Receptor Beta Agonists, Compositions, and Their Use” (Merck Sharp & Dohme Corp., priority 2015, published 2018).

Test [1] addresses T1, GST tagged LXRalpha LBD (ligand binding domain) (Homo sapiens, UniProt Q13133).
T1 construct: purchased Invitrogen pv4655
T1 sequence (Q13133 209-447 limits assumed): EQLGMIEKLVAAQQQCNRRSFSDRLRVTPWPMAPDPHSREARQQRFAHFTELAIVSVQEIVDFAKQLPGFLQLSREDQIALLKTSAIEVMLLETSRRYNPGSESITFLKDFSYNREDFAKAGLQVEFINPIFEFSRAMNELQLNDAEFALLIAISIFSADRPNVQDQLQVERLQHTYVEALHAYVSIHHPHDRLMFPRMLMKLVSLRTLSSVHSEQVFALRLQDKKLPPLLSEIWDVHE
Nature of the test: LanthaScreen TR-FRET Liver X Receptor Coactivator Assay, LXR alpha-LBD. The format is biochemical. The note with it: relative to reference T0901317; for EC50 / LXR alpha IP (nM): Inflection Point (potency), co-activator recruitment; for EC50: read-out: LXR alpha IP; for Emax: activity at max dose (efficacy), read-out: LXR alpha act @ max dose (%). In a few lines: (§1)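 Coactivator-recruitment TR-FRET format: GST-LBD, fluorescein-labelled coactivator peptide, Tb-conjugated anti-GST antibody, incubated at RT. Potency and efficacy scaled to T0901317.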
(In TR-FRET formats the signal depends on donor and acceptor labels being close together.)

Test [2] concerns the target T2, GST tagged LXRbeta LBD (ligand binding domain) (Homo sapiens, UniProt P55055).
T2 construct: purchased Invitrogen pv4658.pps
T2 sequence (P55055 222-460 limits assumed): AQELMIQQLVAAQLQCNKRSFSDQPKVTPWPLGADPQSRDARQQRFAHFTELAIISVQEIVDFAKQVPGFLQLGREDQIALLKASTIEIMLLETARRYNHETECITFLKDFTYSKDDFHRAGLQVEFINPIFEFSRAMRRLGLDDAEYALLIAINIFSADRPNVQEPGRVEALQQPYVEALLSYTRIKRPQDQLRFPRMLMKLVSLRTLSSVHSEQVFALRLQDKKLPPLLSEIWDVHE
Description: LanthaScreen TR-FRET Liver X Receptor Coactivator Assay, LXR beta-LBD. In kind it is biochemical. The note with it: relative to reference T0901317; for EC50: Inflection Point (potency), co-activator recruitment, read-out: LXR beta IP; for Emax: activity at max dose (efficacy), read-out: LXR beta act @ max dose (%). In a few lines: as §1

Consider `Cc1cccc(C2(C(=O)N3CCC(C4CCN(c5ccc(C(=O)N(C)C)c(Cl)c5)CC4)CC3)CCC2)c1` [Example A-19, 2-chloro-N,N-dimethyl-4-(1′-{[1-(3-methylphenyl)cyclobutyl]carbonyl}-4,4′-bipiperidin-1-yl)benzamide], for which, in test [1], the EC50 amounted to 1.75 µM and the Emax was 17%. For the same compound, in test [2], the EC50 was 0.124 µM and the Emax stood at 94%.

Regarding `CC(C)(C(=O)N1CCC(C2CCN(c3cccc(S(C)(=O)=O)c3)CC2)CC1)c1ccccc1` [Example D-8, 1-(2-methyl-2-phenylpropanoyl)-1′-[3-(methylsulfonyl)phenyl]-4,4′-bipiperidine], the EC50 in test [1] came to 2.49 µM; in test [2] it was 0.185 µM. Besides, the figures for the Emax in test [1] and in test [2] were 64% and 134%, respectively.

Turning to `CCC1CCCN1C(=O)c1ccc(N2CCC(C3CCN(C(=O)[C@](O)(c4ccccc4)C(F)(F)F)CC3)CC2)cc1Cl` (stereo partly drawn) [Example E-30, (2R)-3-(1′-{3-chloro-4-[(2-ethylpyrrolidin-1-yl)carbonyl]phenyl}-4,4′-bipiperidin-1-yl)-1,1,1-trifluoro-3-oxo-2-phenylpropan-2-ol], the EC50 in test [1] came out at 1.52 µM; in test [2], 0.143 µM. Also, the results for the Emax in test [1] and in test [2] were 15% and 74%, respectively.

As for `CN(C)C(=O)c1ccc(N2CCC(C3CCN(C(=O)c4ccccc4Cl)CC3)CC2)cc1Cl` [Example A-22, 2-chloro-4-{1′-[(2-chlorophenyl)carbonyl]-4,4′-bipiperidin-1-yl}-N,N-dimethylbenzamide], in test [1], the EC50 is 0.001 µM and the Emax was found to be 3%. For the same compound, in test [2], the EC50 came out at 0.052 µM and the Emax came to 58%.

Regarding `CS(=O)(=O)c1ccc(N2CCC(C3CCN(C(=O)c4c(F)cccc4F)CC3)CC2)cc1Cl` [Example D-6, 1-[3-chloro-4-(methylsulfonyl)phenyl]-1′-[(2,6-difluorophenyl)carbonyl]-4,4′-bipiperidine], in test [1], the EC50 was found to be 0.772 µM and the Emax came out at 18%. Further, in test [2], the EC50 was 0.38 µM and the Emax was 49%.

For the compound `CN(C)C(=O)c1ccc(N2CCC(C3CCN(C(=O)C(O)(C(F)(F)F)C(F)(F)F)CC3)CC2)cc1Cl` [Example A-35, 2-chloro-N,N-dimethyl-4-{1′-[3,3,3-trifluoro-2-hydroxy-2-(trifluoromethyl)propanoyl]-4,4′-bipiperidin-1-yl}benzamide], the EC50 worked out at 0.217 µM in test [1] and 0.007 µM in test [2]. For the same compound, the Emax turned out to be 59% in test [1] and 86% in test [2].

With `CN(C)C(=O)c1ccc(N2CCC(C3CCN(C(=O)C(O)(C4CC4)C(F)(F)F)CC3)CC2)cc1Cl` (single isomer, unassigned) [Example A-8, 2-chloro-4-[1′-(2-cyclopropyl-3,3,3-trifluoro-2-hydroxypropanoyl)-4,4′-bipiperidin-1-yl]-N,N-dimethylbenzamide], in test [1], the EC50 was 1.81 µM and the Emax came to 60%. In addition, in test [2], the EC50 is 0.247 µM and the Emax is 95%.

For `Cc1ccc(F)c(C(=O)N2CCC(C3CCN(c4ccc(C(=O)N(C)C)c(Cl)c4)CC3)CC2)c1F` [Example A-38, 2-chloro-4-{1′-[(2,6-difluoro-3-methylphenyl)carbonyl]-4,4′-bipiperidin-1-yl}-N,N-dimethylbenzamide], in test [1], the EC50 is 3.45 µM and the Emax was 22%. In test [2], the EC50 was 0.164 µM and the Emax was 85%.

In the case of `CN(C)C(=O)c1ccc(N2CCC(C3CCN(C(=O)C4(c5cc(F)ccc5F)CCC4)CC3)CC2)cc1Cl` [Example A-76, 2-chloro-4-(1′-{[1-(2,5-difluorophenyl)cyclobutyl]carbonyl}-4,4′-bipiperidin-1-yl)-N,N-dimethylbenzamide], in test [1], the EC50 was found to be 2 µM and the Emax came out at 31%. For the same compound, in test [2], the EC50 was found to be 0.374 µM and the Emax came to 87%.

On to `CC(C)C(O)(C(=O)N1CCC(C2CCN(c3ccc(C(=O)N(C)C)c(F)c3)CC2)CC1)C(F)(F)F` [Example D-2, 2-fluoro-4-{1′-[2-hydroxy-3-methyl-2-(trifluoromethyl)butanoyl]-4,4′-bipiperidin-1-yl}-N,N-dimethylbenzamide], for which, in test [1], the EC50 was found to be 2.77 µM and the Emax worked out at 41%. Besides, in test [2], the EC50 came to 0.4 µM and the Emax came to 99%.

Take `CN(C)C(=O)c1ccc(N2CCC(C3CCN(C(=O)C(O)(c4ccccc4)C4CCC4)CC3)CC2)cc1Cl` (centres unmarked) [Example A-51, 2-chloro-4-{1′-[cyclobutyl(hydroxy)phenylacetyl]-4,4′-bipiperidin-1-yl}-N,N-dimethylbenzamide]: in test [1], the EC50 was determined as 1.59 µM and the Emax is 33%. Moreover, in test [2], the EC50 came to 0.128 µM and the Emax turned out to be 109%.

Regarding `CN(C)C(=O)c1ccc(N2CCC(C3CCN(S(=O)(=O)c4ccccc4C(F)(F)F)CC3)CC2)cc1Cl` [Example A-101, 2-chloro-N,N-dimethyl-4-(1′-{[2-(trifluoromethyl)phenyl]sulfonyl}-4,4′-bipiperidin-1-yl)benzamide], the EC50 in test [1] was found to be 0.618 µM; in test [2], 0.008 µM. Besides, the Emax turned out to be 65% in test [1] and 138% in test [2].

As to `CN(Cc1nccs1)C(=O)c1ccc(N2CCC(C3CCN(C(=O)[C@](O)(c4ccccc4)C(F)(F)F)CC3)CC2)cc1Cl` [Example E-49, 2-chloro-N-methyl-N-(1,3-thiazol-2-ylmethyl)-4-{1′-[(2R)-3,3,3-trifluoro-2-hydroxy-2-phenylpropanoyl]-4,4′-bipiperidin-1-yl}benzamide], the EC50 in test [1] came out at 1.38 µM; in test [2] it was 0.184 µM. Besides, the figures for the Emax in test [1] and in test [2] were 30% and 77%, respectively.

As to `CN(C)C(=O)c1ccc(N2CCC(C3CCN(C(=O)c4ccccc4C(F)(F)F)CC3)CC2)cc1Cl` [Example A-21, 2-chloro-N,N-dimethyl-4-(1′-{[2-(trifluoromethyl)phenyl]carbonyl}-4,4′-bipiperidin-1-yl)benzamide], in test [1], the EC50 came out at 3 µM and the Emax worked out at 37%. Also, in test [2], the EC50 came out at 0.243 µM and the Emax stood at 95%.

Consider `CNC(=O)c1ccc(N2CCC(C3CCN(C(=O)C(O)(C(C)C)C(F)(F)F)CC3)CC2)cc1Cl` (centres unmarked) [Example E-5, 2-chloro-4-{1′-[2-hydroxy-3-methyl-2-(trifluoromethyl)butanoyl]-4,4′-bipiperidin-1-yl}-N-methylbenzamide], for which, in test [1], the EC50 was 1.07 µM and the Emax was 56%. Also, in test [2], the EC50 came out at 0.111 µM and the Emax was 123%.

In the case of `CN(C)C(=O)c1ccc(N2CCC(C3CCN(C(=O)C(F)(F)c4ccccc4)CC3)CC2)cc1Cl` [Example A-64, 2-chloro-4-{1′-[difluoro(phenyl)acetyl]-4,4′-bipiperidin-1-yl}-N,N-dimethylbenzamide], the EC50 in test [1] turned out to be 0.936 µM; in test [2], 0.054 µM. In addition, the values for the Emax in test [1] and in test [2] were 74% and 144%, respectively.

As for `CN(C)C(=O)c1ccc(N2CCC(C3CCN(C(=O)C4(c5ccc(O)cc5)CCCC4)CC3)CC2)cc1Cl` [Example A-67, 2-chloro-4-(1′-{[1-(4-hydroxyphenyl)cyclopentyl]carbonyl}-4,4′-bipiperidin-1-yl)-N,N-dimethylbenzamide], in test [1], the “LXR alpha IP (nM)” value is listed as “NO IP” and the Emax worked out at 26%. Also, in test [2], the EC50 worked out at 0.107 µM and the Emax is 75%.

Regarding `COC(=O)c1ccc(N2CCC(C3CCN(C(=O)OC(C)(C)C)CC3)CC2)nc1Cl` [Example E-1, tert-butyl 1′-[6-chloro-5-(methoxycarbonyl)pyridin-2-yl]-4,4′-bipiperidine-1-carboxylate], in test [1], the EC50 amounted to 0.857 µM and the Emax turned out to be 29%. Moreover, in test [2], the EC50 was determined as 0.237 µM and the Emax was found to be 36%.

Consider `CN(C)C(=O)c1ccc(N2CCC(C3CCN(C(=O)C(O)(CCc4ccccc4)C(F)(F)F)CC3)CC2)cc1Cl` (centres unmarked) [Example A-49, 2-chloro-4-{1′-[2-hydroxy-4-phenyl-2-(trifluoromethyl)butanoyl]-4,4′-bipiperidin-1-yl}-N,N-dimethylbenzamide], for which, in test [1], the “LXR alpha IP (nM)” value is “NO IP” and the Emax is 16%. Moreover, in test [2], the EC50 is 0.429 µM and the Emax came to 32%.

In the case of `CCN(CC)C(=O)c1ccc(N2CCC(C3CCN(C(=O)c4c(F)cccc4F)CC3)CC2)cc1Cl` [Example E-14, 2-chloro-4-{1′-[(2,6-difluorophenyl)carbonyl]-4,4′-bipiperidin-1-yl}-N,N-diethylbenzamide], in test [1], the EC50 came out at 1.89 µM and the Emax is 30%. For the same compound, in test [2], the EC50 came to 0.289 µM and the Emax was found to be 78%.
